Laboratory results taken from US20250032506A1, “GLUCOCORTICOID RECEPTOR BLOCKADE WITH MIFEPRISTONE TO SENSITIZE PANCREATIC CANCER TO IMMUNOTHERAPY” (BOARD OF REGENTS, THE UNIVERSITY OF TEXAS SYSTEM, priority 2021, published 2025).

Experiments:
SW1990 cells = assay: qPCR, immunoblotting and flow cytometry of PD-L1 and MHC-I pathway expression in SW1990 cells; type: cell-based, human
Protocol: (§1) (See Bardeesy, N., et al. supra). The human PDAC cell lines SU86.86 ([…]), SW1990 ([…]), BXPC-3 ([…]), Miapaca-2 ([…]), Capan-1 ([…]), ASPC-1 ([…]), Hs766T ([…]), Colo357/FG ([…]), L3.6PL ([…]), Panc28 ([…]), Capan-2 ([…]), CF-Pac-1 ([…]), Panc3 (sex unknown), Panc1 ([…]), Panc48 (sex unknown), and HPAC ([…]) were from Mien-Chie Hung's lab stock. […] The BXPC-3, Miapaca-2, Capan-1, ASPC-1, Colo357/FG, L3.6PL, Panc28, Capan-2, CF-Pac-1, Panc3, Panc1, Panc48, and HPAC cell lines were cultured in DMEM/F-12 (Corning, 10-092-CV) supplemented with 10% FBS and 1% penicillin/streptomycin. Cells were grown in a humidified incubator with 5% CO2 at 37° C., and low-passage stocks were maintained in a centralized lab cell bank. Short tandem repeat profiling and mycoplasma tests were done by the Cytogenetics and Cell Authentication Core at MD Anderson Cancer Center.
Membranes were blocked with 10% non-fat milk in TBST and incubated with the primary antibody at 4° C. overnight, followed by incubation with the secondary antibody conjugated with horseradish peroxidase (HRP).

HY24409 cells [1] = assay: qPCR and flow cytometry of PD-L1, MHC-I and B2M in HY24409 cells; type: cell-based, mouse; conditions: MIFE 20 μM, 48 h
Protocol: as §1

HY19636 cells = assay: qPCR and flow cytometry of PD-L1, MHC-I and B2M in HY19636 cells; type: cell-based, mouse; conditions: MIFE 20 μM, 48 h
Source text: The male PDAC cell lines HY24409 and HY24160 and the female PDAC cell line HY19636 were established from KPC mice (p48-Cre; Kras^LSL-G12D/+; Trp53^loxP/+) that were backcrossed to a C57BL/6 background (purity: ˜ 98%). (See Bardeesy, N., et al. supra). The human PDAC cell lines SU86.86 ([…]), SW1990 ([…]), BXPC-3 ([…]), Miapaca-2 ([…]), Capan-1 ([…]), ASPC-1 ([…]), Hs766T ([…]), Colo357/FG ([…]), L3.6PL ([…]), Panc28 ([…]), Capan-2 ([…]), CF-Pac-1 ([…]), Panc3 (sex unknown), Panc1 ([…]), Panc48 (sex unknown), and HPAC ([…]) were from Mien-Chie Hung's lab stock. The HY24409, HY24160, HY19636, SU86.86, SW1990, and Hs766T cell lines were cultured in RPMI 1640 (Corning, 10-041-CV) supplemented with 10% fetal bovine serum (FBS) (Gibco, 10438-034) and 1% penicillin/streptomycin (Sigma, P4333). The BXPC-3, Miapaca-2, Capan-1, ASPC-1, Colo357/FG, L3.6PL, Panc28, Capan-2, CF-Pac-1, Panc3, Panc1, Panc48, and HPAC cell lines were cultured in DMEM/F-12 (Corning, 10-092-CV) supplemented with 10% FBS and 1% penicillin/streptomycin. Cells were grown in a humidified incubator with 5% CO2 at 37° C., and low-passage stocks were maintained in a centralized lab cell bank. Short tandem repeat profiling and mycoplasma tests were done by the Cytogenetics and Cell Authentication Core at MD Anderson Cancer Center.
(§2) Immunity 54, 1561-1577 e1567 (2021).

[2] = system: tumors formed by KPC cell lines (HY24409, HY24160); assay: Tumor growth in immunodeficient NSG mice implanted with KPC cell lines; type: in vivo, mouse; conditions: mifepristone oral gavage 60 mg kg-1, twice every 3 days
Protocol: (§3) Orthotopic pancreatic tumor size was determined by MRI. Subcutaneous tumor size was measured with a caliper. […] Animal body weight was measured throughout the study.

HY24409 cells [3] = assay: Cell cycle analysis after double thymidine block; type: cell-based, mouse; conditions: flow cytometry; mifepristone 20 μM, 48 h pretreatment; unsynchronized and after release from double thymidine block
Protocol: Cell cycle analysis Cells were seeded in 6-well plates (2×10^5 cells per well) and treated with 2 mM thymidine (Sigma-Aldrich, T9250-1G) for 18 hours, fresh medium for 9 hours, and 2 mM thymidine again for 17 hours to arrest cells in G1/S phases for synchronization. Released cells were collected at the indicated time points by centrifugation, washed in cold PBS, resuspended in 1 ml of 70% ethanol, and stored at −20° C. overnight. Cells were then collected by centrifugation and washed two times with cold PBS. To ensure that only DNA was stained, cells were treated with 50 μl of 100 μg ml^−1 RNase (New England Biolabs, T3018L), and added 425 μl of cell staining buffer (2% FBS in PBS) and 25 μl of propidium iodide solution (BioLegend, 421301). After staining, samples were analyzed by flow cytometry. Cells were gated for PI staining and the cells in G1, S, and G2/M phases were quantitated using FlowJo software.

[4] = system: orthotopic HY24409 tumors; assay: CyTOF, flow cytometry, qPCR and multiplex immunofluorescent staining of orthotopic HY24409 tumors; type: in vivo, mouse
Protocol: Cancer Discov 10, 1374-1387 (2020). […] CyTOF data were analyzed by FlowJo and Cytobank.
as §2

HY24409 cells [5] = assay: Chemokine array of conditioned medium; type: cell-based, mouse; conditions: mifepristone 20 μM, 48 hours
Protocol: Chemokine array was performed with conditioned medium from HY24409 cells treated with vehicle or mifepristone (20 μM, 48 hours) using the Proteome Profiler Mouse Chemokine Array Kit (R&D system, ARY020) following the manufacturer's instructions.

[6] = system: orthotopic HY24160 tumors
Protocol: as §3

[7] = CyTOF, orthotopic HY24409 tumors, vs vehicle or control shRNA
[8] = flow cytometric analysis, HY24409 tumors
[9] = flow cytometry and qPCR, HY24160 tumors

CC#C[C@]1(O)CC[C@H]2[C@@H]3CCC4=CC(=O)CCC4=C3[C@@H](c3ccc(N(C)C)cc3)C[C@@]21C [mifepristone]
PD-L1 protein (SW1990 cells; Western blot and flow cytometric analysis, MIFE 72 h): downregulated | MHC-I and B2M proteins (SW1990 cells; Western blot and flow cytometry, MIFE 72 h): upregulation | mRNA levels of components in the MHC-I pathway, including HLA-A, HLA-B, HLA-C, B2M, SEC61B, and SEC61G (SW1990 cells; qPCR, MIFE 20 μM, 72 h): increased | mRNA levels of immune checkpoint ligands, including PD-L1, CD47, TDO, and SIGLEC15 (SW1990 cells; qPCR, MIFE 20 μM, 72 h): decreased | surface PD-L1 levels (HY24409 cells [1]; flow cytometry): decreased | surface protein levels of MHC-I (H-2K^b) and B2M (HY24409 cells [1]; flow cytometry): increased | MHC-I and B2M mRNA levels (HY24409 cells [1]; qPCR): increase | PD-L1 mRNA levels (HY24409 cells [1]; qPCR): decrease | MHC-I and B2M at mRNA and surface protein levels (HY19636 cells): upregulated | PD-L1 at mRNA and surface protein levels (HY19636 cells): downregulated | growth of tumors formed by KPC cell lines [2]: neither mifepristone treatment (FIGS. 11A-11J) nor shRNA-mediated GR knockdown (FIGS. 11K-11N) affected the growth of tumors | cell cycle profile (HY24409 cells [3]): neither GR knockdown (FIGS. 11Q-11R) nor mifepristone treatment (FIGS. 11S-11T) altered the cell cycle profile | abundance of CD4+ T cells, regulatory T cells, natural killer cells, B cells, dendritic cells, macrophages, and myeloid-derived suppressor cells ([4]; CyTOF, orthotopic HY24409 tumors): No significant change | increase in percentage of granzyme B+ CTLs [4, 7]: 1.6 fold | increase in percentage of tumor-infiltrating CD8+ cells [4, 7]: 1.9 fold | cell-surface MHC-I (H-2K^b) and B2M levels in pancreatic tumors [4, 8]: higher | cell-surface PD-L1 levels in pancreatic tumors [4, 8]: lower | expression levels of intracellular TNFα, IFNγ, and IL-2 in tumor-associated CD8+ cells ([4]; flow cytometry after ex vivo stimulation with PMA and ionomycin, HY24409 tumors): significantly increased | surface levels of T cell exhaustion markers PD-1, Tim-3, and LAG-3 ([4]; flow cytometry, CTLs in HY24409 pancreatic tumors): significant reduction | multiplex immunofluorescent staining of CD3, CD8, and granzyme B in pancreatic tumors ([4]; mifepristone-treated C57BL/6 mice, HY24409): substantial enrichment | mRNA levels of MHC-I components (H-2k, H-2d, and B2m) in tumors ([4]; qPCR, HY24409 tumors): upregulated | mRNA levels of PD-L1 and known GR-activated target genes (Klf9, Snai2, and Fn1) in tumors ([4]; qPCR, HY24409 tumors): downregulated | chemokines secreted by HY24409 cells (HY24409 cells [5]): no chemokines that showed a change after mifepristone treatment were found | tumor growth ([6]; C57BL/6 mice, orthotopic HY24160, CTL-dependent manner): inhibited tumor growth | MHC-I expression levels [6, 9]: upregulated | expression levels of PD-L1 and known GR-activated genes [6, 9]: downregulated | body weight ([6]; mouse, in vivo): without affecting body weight | infiltration and activity of cytotoxic T cells ([6]; mouse, in vivo): promoted
